Results as given in US11279711B2, “Condensed heterocyclic derivates as BCL-2 inhibitors for the treatment of neoplastic diseases” (Newave Pharmaceutical Inc., priority 2017, dated 2022).

Columns and labels:
RS4;11 cells = conditions: cited from earlier work
CLL = conditions: read-out: average EC50, apoptosis in CLL; cited from earlier work
RS4;11 xenografts = conditions: single dose of 100 mg/kg; cited from earlier work
Toledo = test: In vitro anti-proliferation assay (ATPlite), Toledo; format: cell-based; conditions: Homo sapiens, 5% FBS, about 72 hours
Procedure: (§1) Biological Example 3: In Vitro Anti-Proliferation Assay in Small Cell Lung Cancer (SCLC) Cell Line
(§2) Cell antiproliferation was assayed by PerkinElmer ATPlite™ Luminescence Assay System. Briefly, the various test cancer cell lines were plated at a density of about 1×10^4 cells per well in Costar 96-well plates, and were incubated with different concentrations of compounds for about 72 hours in medium supplemented with 5% FBS. One lyophilized substrate solution vial was then reconstituted by adding 5 mL of substrate buffer solution, and was agitated gently until the solution was homogeneous. About 50 μL of mammalian cell lysis solution was added to 100 μL of cell suspension per well of a microplate, and the plate was shaken for about five minutes in an orbital shaker at ˜700 rpm. This procedure was used to lyse the cells and to stabilize the ATP. Next, 50 μL substrate solution was added to the wells and microplate was shaken for five minutes in an orbital shaker at ˜700 rpm. Finally, the luminescence was measured by a PerkinElmer TopCount® Microplate Scintillation Counter. Such assays, carried out with a range of doses of test compounds, allowed the determination of the cellular anti-antiproliferative IC50 of the compounds of the present invention.

MV411 = test: In vitro anti-proliferation assay (ATPlite), MV411; format: cell-based; conditions: Homo sapiens, MV4-11; 5% FBS, about 72 hours
Procedure: as §1, §2

[1] = test system: BCL-2-dependent acute lymphoblastic leukemia (ALL) cell line RS4;11; test: In vitro anti-proliferation assay (ATPlite) in RS4;11; format: cell-based; conditions: Homo sapiens; RS4;11, 5% FBS, about 72 hours; read-out: IC50, RS4; 115% FBS
Procedure: Biological Example 2: In Vitro Anti-Proliferation Assay in BCL-2-Dependent Acute Lymphoblastic Leukemia (ALL) Cell Line RS4;11
as §2, with “with 5% FBS or 10% normal human serum (NHS). One lyophilized” for “with 5% FBS. One lyophilized”, “shaker at −700 rpm. This” for “shaker at ˜700 rpm. This”, “present invention. The following table lists the IC50 values of certain compounds of the invention.” for “present invention.”

Mcl-1 = Mcl-1 (Homo sapiens, UniProt Q07820); conditions: cited from earlier work
Chain of Mcl-1 (Q07820 whole entry): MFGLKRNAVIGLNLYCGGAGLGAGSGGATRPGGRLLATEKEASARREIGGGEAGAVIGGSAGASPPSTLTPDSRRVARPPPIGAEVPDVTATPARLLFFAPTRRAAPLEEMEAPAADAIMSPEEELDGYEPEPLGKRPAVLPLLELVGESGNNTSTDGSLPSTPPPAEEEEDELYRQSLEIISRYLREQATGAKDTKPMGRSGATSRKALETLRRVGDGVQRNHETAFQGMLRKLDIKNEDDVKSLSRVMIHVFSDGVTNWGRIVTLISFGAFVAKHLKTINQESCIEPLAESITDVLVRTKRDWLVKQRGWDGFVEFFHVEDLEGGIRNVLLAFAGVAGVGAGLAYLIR

Granta = test: In vitro anti-proliferation assay (ATPlite), Granta; format: cell-based; conditions: 5% FBS, about 72 hours
Procedure: as §1, §2

H146 = test: In vitro anti-proliferation assay (ATPlite), small cell lung cancer cell line H146; format: cell-based; conditions: 5% FBS, about 72 hours
Procedure: as §1, §2
(§3) Cisplatin, the standard of Care of small cell lung cancer cell lines was used as the positive control drug.

SCLC H146 cell line = conditions: read-out: IC50 against SCLC H146 cell line; cited from earlier work
Bcl-w = target: T1, Bcl-w (Homo sapiens, UniProt Q92843); conditions: cited from earlier work
T1 sequence (Q92843 1-193): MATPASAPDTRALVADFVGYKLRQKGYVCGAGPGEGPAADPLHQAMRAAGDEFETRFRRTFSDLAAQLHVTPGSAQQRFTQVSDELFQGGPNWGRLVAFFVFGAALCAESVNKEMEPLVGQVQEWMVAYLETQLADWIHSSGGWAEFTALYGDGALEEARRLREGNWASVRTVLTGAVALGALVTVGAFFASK

H1963 = test: In vitro anti-proliferation assay (ATPlite), small cell lung cancer cell line H1963; format: cell-based; conditions: 5% FBS, about 72 hours
Procedure: as §1, §2, §3

circulating platelets = conditions: clinical trial; dose-limiting thrombocytopenia; cited from earlier work
H889 = test: In vitro anti-proliferation assay (ATPlite), small cell lung cancer cell line H889; format: cell-based; conditions: 5% FBS, about 72 hours
Procedure: as §1, §2, §3

[2] = test system: xenograft models of small-cell lung cancer and acute lymphoblastic leukemia; conditions: oral administration, alone; cited from earlier work
H345 xenograft = conditions: 100 mg/kg/day, H345 xenograft model; cited from earlier work
[3] = cited from earlier work
[4] = in vivo; cited from earlier work
[5] = Mice PK study, oral dosing; format: in vivo; conditions: CD-1 mouse, 10 mg/kg; for AUC(0-t) / bioavailability / half-life: plasma; for bioavailability: read-out: Bioavailabilty; for half-life: read-out: t ½ (converted)
Procedure: Biological Example 4: Mice PK Study
The pharmacokinetics of compounds were evaluated in CD-1 mouse via Intravenous and Oral Administration. The IV dose was administered as a slow bolus in the Jugular vein, and oral doses were administered by gavage. The formulation for IV dosing was 5% DMSO in 20% HPBCD in water, and the PO formulation was 2.5% DMSO, 10% EtOH, 20% Cremphor EL, 67.5% D5W. The PK time point for the IV arm was 5, 15, 30 min, 1, 2, 4, 6, 8, 12, 24 hours post dose, and for PO arm was 15, 30 min, 1, 2, 4, 6, 8, 12, 24 hours post dose. Approximately 0.03 mL blood was collected at each time point. Blood of each sample was transferred into plastic micro centrifuge tubes containing EDTA-K2 and collect plasma within 15 min by centrifugation at 4000 g for 5 minutes in a 4° C. centrifuge. Plasma samples were stored in polypropylene tubes. The samples were stored in a freezer at −75±15° C. prior to analysis. Concentrations of compounds in the plasma samples were analyzed using a LC-MS/MS method. WinNonlin (Phoenix™, version 6.1) or other similar software was used for pharmacokinetic calculations. The following pharmacokinetic parameters were calculated, whenever possible from the plasma concentration versus time data: IV administration: C0, CL, Vd, T1/2, AUCinf, AUClast, MRT, Number of Points for Regression; PO administration: Cmax, Tmax, T1/2, AUCinf, AUClast, F %, Number of Points for Regression. The pharmacokinetic data was described using descriptive statistics such as mean, standard deviation. Additional pharmacokinetic or statistical analysis was performed at the discretion of the contributing scientist, and was documented in the data summary.

CC1(C)CCC(CN2CCN(c3ccc(C(=O)NS(=O)(=O)c4ccc(NCC5CCOCC5)c([N+](=O)[O-])c4)c(Oc4cnc5[nH]ccc5c4)c3)CC2)=C(c2ccc(Cl)cc2)C1 [ABT-199]
EC50 (RS4;11 cells): 8 nM
EC50 (CLL): 3 nM
maximal tumor growth inhibition (RS4;11 xenografts): 95%
tumor growth delay (RS4;11 xenografts): 152%
IC50 (Toledo): 98.1 nM
IC50 (MV411): 20.1 nM
IC50 [1]: 5.8 nM
activity to Mcl-1 (Mcl-1): no activity
IC50 (Granta): 42.5 nM

CC1(C)CCC(c2ccc(Cl)cc2)=C(CN2CCN(c3ccc(C(=O)NS(=O)(=O)c4ccc(N[C@H](CCN5CCOCC5)CSc5ccccc5)c(S(=O)(=O)C(F)(F)F)c4)cc3)CC2)C1 [ABT-263]
IC50 (H146; Homo sapiens, NCI-H146): 28 nM
IC50 (SCLC H146 cell line): 110 nM
Ki (Bcl-w): ≤ 1 nM
IC50 (H1963; Homo sapiens, NCI-H1963): 41.7 nM
number of circulating platelets (circulating platelets): rapid, concentration-dependent decrease in the number of circulating platelets
IC50 (H889; Homo sapiens, NCI-H889): 32.4 nM
tumor regression [2]: complete tumor regressions
TGI (H345 xenograft): 80%
treated tumors indicating at least a 50% reduction in tumor volume (H345 xenograft): 20%

CN(C)CC[C@H](CSc1ccccc1)Nc1ccc(S(=O)(=O)NC(=O)c2ccc(N3CCN(Cc4ccccc4-c4ccc(Cl)cc4)CC3)cc2)cc1[N+](=O)[O-] [ABT-737]
aqueous solubility [3]: low aqueous solubility
oral bioavailability [4]: not orally bioavailable

N.N.[Cl][Pt][Cl] [Cisplatin, reference compound]
IC50 (H146): 4590 nM
IC50 (H1963): 1670 nM
IC50 (H889): 7080 nM

CC1(C)CCC(CN2CCN(c3ccc(C(=O)NS(=O)(=O)c4ccc(NCC5CCOCC5)c([N+](=O)[O-])c4)c(N4CCCOc5nc6[nH]ccc6cc54)c3)CC2)=C(c2ccc(Cl)cc2)C1 [Example 2, 4-(4-((4′-chloro-5,5-dimethyl-3,4,5,6-tetrahydro-[1,1′-biphenyl]-2-yl)methyl)piperazin-1-yl)-2-(3,4-dihydro-2H-pyrrolo[3′,2′:5,6]pyrido[2,3-b][1,4]oxazepin-1(7H)-yl)-N-((3-nitro-4-(((tetrahydro-2H-pyran-4-yl)methyl)amino)phenyl)sulfonyl)benzamide]
AUC(0-t) [5]: 9300 ng·h/mL
bioavailability [5]: 49%
half-life [5]: 4.3 h
IC50 (H146; Homo sapiens, NCI-H146): 64 nM
IC50 (Toledo): 8.1 nM
IC50 (H1963; Homo sapiens, NCI-H1963): 5.6 nM
IC50 (MV411): 1.6 nM
IC50 (H889; Homo sapiens, NCI-H889): 1 nM
IC50 [1]: 0.12 nM
IC50 (Granta): 3.5 nM

CC1(C)CCC(CN2CCN(c3ccc(C(=O)NS(=O)(=O)c4ccc(NCC5(F)CCOCC5)c([N+](=O)[O-])c4)c(N4CCCOc5nc6[nH]ccc6cc54)c3)CC2)=C(c2ccc(Cl)cc2)C1 [Example 3, 4-(4-((4′-chloro-5,5-dimethyl-3,4,5,6-tetrahydro-[1,1′-biphenyl]-2-yl)methyl)piperazin-1-yl)-2-(3,4-dihydro-2H-pyrrolo[3′,2′:5,6]pyrido[2,3-b][1,4]oxazepin-1(7H)-yl)-N-((4-(((4-fluorotetrahydro-2H-pyran-4-yl)methyl)amino)-3-nitrophenyl)sulfonyl)benzamide]
AUC(0-t) [5]: 4160 ng·h/mL
bioavailability [5]: 30%
half-life [5]: 2.6 h
IC50 (H146; Homo sapiens, NCI-H146): 43 nM
IC50 (H1963; Homo sapiens, NCI-H1963): 4.2 nM
IC50 (H889; Homo sapiens, NCI-H889): 0.9 nM
IC50 [1]: < 0.1 nM

CC1(C)CCC(CN2CCN(c3ccc(C(=O)NS(=O)(=O)c4ccc(NC[C@@H]5COCCO5)c([N+](=O)[O-])c4)c(N4CCCOc5nc6[nH]ccc6cc54)c3)CC2)=C(c2ccc(Cl)cc2)C1 [Example 8, 4-(4-[[2-(4-chlorophenyl)-4,4-dimethylcyclohex-1-en-1-yl]methyl]piperazin-1-yl)-N-[4-([[(2R)-1,4-dioxan-2-yl]methyl]amino)-3-nitrobenzenesulfonyl]-2-[14-oxa-2,4,10-triazatricyclo[7.5.0.0^[3,7]]tetradeca-1(9),2,5,7-tetraen-10-yl]benzamide]
AUClast(h * ng/mL) [5]: 5,714 h * ng/mL
Bioavailabilty [5]: 44%
t ½ [5]: 2.3 h
IC50 (H146): 50 nM
IC50 (H1963): 5.3 nM
IC50 (H889): 0.7 nM

CC1(C)CCC(CN2CCN(c3ccc(C(=O)NS(=O)(=O)c4ccc(NC[C@H]5COCCO5)c([N+](=O)[O-])c4)c(N4CCCOc5nc6[nH]ccc6cc54)c3)CC2)=C(c2ccc(Cl)cc2)C1 [Example 9, 4-(4-[[2-(4-chlorophenyl)-4,4-dimethylcyclohex-1-en-1-yl]methyl]piperazin-1-yl)-N-[4-([[(2S)-1,4-dioxan-2-yl]methyl]amino)-3-nitrobenzenesulfonyl]-2-[14-oxa-2,4,10-triazatricyclo[7.5.0.0^[3,7]]tetradeca-1(9),2,5,7-tetraen-10-yl]benzamide]
AUClast(h * ng/mL) [5]: 8,168 h * ng/mL
Bioavailabilty [5]: 64%
t ½ [5]: 2.3 h
IC50 (H146): 33 nM
IC50 (H1963): 4.7 nM
IC50 (H889): 0.7 nM
